Entries after “also recorded” stand apart in the source; their conditions may differ. Read-outs that look alike come from different tables or passages of the source.
Assays:
[1] = molecular target: T1, Scn (Homo sapiens, UniProt P80188); details: ref Abergel et al., 2006a, cited from earlier work
T1 construct: made in house

[2] = molecular target: T1, Scn; details: cited from earlier work; for binding to Scn, qualitative binding assays: ref Holmes et al., 2005
[3] = molecular target: T2, human Scn (C87S) (Homo sapiens, UniProt P80188, C107S); assay: crystallographic test of candidate ligand binding in the Scn calyx
T2 construct: made in house
T2 sequence (P80188 21-198 C107S): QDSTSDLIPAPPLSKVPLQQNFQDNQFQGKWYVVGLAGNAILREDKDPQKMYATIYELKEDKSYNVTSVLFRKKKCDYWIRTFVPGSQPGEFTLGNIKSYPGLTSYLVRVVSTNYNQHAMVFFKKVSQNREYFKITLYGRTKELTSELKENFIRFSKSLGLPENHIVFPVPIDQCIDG
From the text: Pseudomonas aeruginosa is a Gram-negative γ-proteobacterium which can cause acute and chronic infections ranging from septicemia, urinary infections, wound colonization, and chronic lung colonization in cystic fibrosis patients ([Cornelis and Dingemans, 2013]). P. aeruginosa produces two chemically-distinct siderophores, pyoverdine (PVD) and PCH, with relatively high or low affinities for iron, respectively. […] The quite large PVD structure would also not be expected to fit within the Scn calyx, nor would the structure of PCH-chelated iron be expected to fit within the key binding pocket, due to tight steric constraints around the iron center imposed by K125 and K134. A preliminary crystal structure of a Scn/PCH complex (3U03.pdb) was deposited in the Protein Databank (PDB, ([Berman et al., 2000])) by a structural genomics consortium. […] First, using the deposited diffraction data, it was readily apparent that the PCH ligand as modeled sat in negative electron density in difference Fourier syntheses (Fig. 7A). Second, this particular crystal form of Scn usually contains three molecules in the asymmetric unit, though only two had been modeled in the deposited structure. Using the deposited diffraction data, we re-refined the structure (Table 2), successfully placing the third Scn molecule and improving refinement statistics: Rfree/Rwork values decreased from 0.303/0.269 (3U03.pdb) to 0.253/0.235 (Table 2).
Though hexadentate catecholate siderophores have much higher complexation constants, bidentate catecholamine hormones (e.g. norepinephrine, NE) are capable of chelating iron in 3:1 complexes, and can serve to promote bacterial growth, at least in vitro ([O'Donnell et al., 2006]). […] However, no co-crystal structure was or has been subsequently reported, and the observed crystal habit was distinct from the typical tetragonal forms observed for Scn (e.g., Fig. 6B, D, and F). […] In order to resolve this discrepancy, we undertook to directly determine the Fe-NE/Scn co-crystal structure. […]

[4] = molecular target: T3, Scn(C87S/K125A) (Homo sapiens, UniProt P80188, C107S/K145A); assay: FQ binding assay, Scn(C87S/K125A) mutant
T3 construct: made in house
T3 sequence (P80188 21-198 C107S/K145A): as the sequence (P80188 21-198 C107S) above, with K125A counted along it
From the text: (§1) Growing somewhat frustrated with our inability to fully ablate ligand binding by even fairly extensive mutation, we focused on alternate mutations involving key Pocket #1: K125A, K134A, and the combination. Both lysine side-chains contribute bracketing Coulombic, cation-π, and hydrophobic interactions to the CAM group in this calyx pocket (Fig. 1A). […] The observed < 40-fold affinity reductions were surprising, given the seemingly crucial interactions contributed by these two side-chains bracketing the key pocket.
(§2) Protein biochemistry and crystallography: Mutations were made as previously described ([Abergel et al., 2008], [Goetz et al., 2002]). All clones were confirmed by DNA sequencing. Scn proteins were expressed and purified as previously described ([Abergel et al., 2008], [Bundgaard et al., 1994], [Goetz et al., 2002]). YfiY was expressed and purified as previously described. All crystals were grown using hanging drop vapor diffusion at room temperature. […] Initial Scn structure phases were calculated from the 1L6M.pdb structure and optimized by rigid-body refinement using REFMAC5 ([Murshudov et al., 1997]), or by molecular replacement using 1L6M.pdb as the search model with PHASER ([McCoy et al., 2007]). […]

[5] = molecular target: T4, Scn(C87S/K134A) (Homo sapiens, UniProt P80188, C107S/K154A); assay: FQ binding assay, Scn(C87S/K134A) mutant
T4 construct: made in house
T4 sequence (P80188 21-198 C107S/K154A): as the sequence (P80188 21-198 C107S) above, with K134A counted along it
From the text: as §1, §2

[6] = molecular target: T3, Scn(C87S/K125A); assay: qualitative binding by co-crystallization (crystal color), Scn(C87S/K125A); details: color of complex crystals
From the text: as §1
(§3) Fig. 6 Effects of mutating proximal calyx-lining residues on ligand recognition. (A) Superpositions of the three Fe-ENT complexes in the crystallographic AU of the complex with the Scn(C87S/K125A) mutant are shown in a stereoview, oriented and styled as in Fig. 3C. […] (C) Superpositions of the three Fe-ENT complexes in the crystallographic AU of the complex with the Scn(C87S/K134A) mutant are shown in a stereoview. […]
(§4) Protein biochemistry and crystallography: Mutations were made as previously described ([Abergel et al., 2008], [Goetz et al., 2002]). […] Initial Scn structure phases were calculated from the 1L6M.pdb structure and optimized by rigid-body refinement using REFMAC5 ([Murshudov et al., 1997]), or by molecular replacement using 1L6M.pdb as the search model with PHASER ([McCoy et al., 2007]). […]

[7] = molecular target: T4, Scn(C87S/K134A); assay: qualitative binding by co-crystallization (crystal color), Scn(C87S/K134A); details: color of complex crystals
From the text: as §1, §3, §4

[8] = molecular target: T5, Scn(C87S/K125A/K134A) (Homo sapiens, UniProt P80188, C107S/K145A/K154A); assay: crystallographic analysis and qualitative co-crystallization binding trials, Scn(C87S/K125A/K134A); details: crystals grown in the presence of Fe-ENT
T5 construct: made in house
T5 sequence (P80188 21-198 C107S/K145A/K154A): as the sequence (P80188 21-198 C107S) above, with K125A, K134A counted along it

[9] = molecular target: Scn(C87S/W79A/R81A); design: method as in Abergel et al., 2008; details: W79A/R81A mutation; ref Abergel et al., 2008; cited from earlier work
[10] = molecular target: Scn(C87S/Y106F); design: method as in Abergel et al., 2008; details: Y106F mutation; ref Abergel et al., 2008; cited from earlier work
[11] = molecular target: Scn; design: method as in Li et al., 2015; details: ref Li et al., 2015; cited from earlier work
[12] = test system: P. aeruginosa; design: method as in Correnti et al., 2011; details: in vitro; ref Correnti et al., 2011; cited from earlier work

Molecule: O=C(N[C@H]1COC(=O)[C@@H](NC(=O)c2cccc(O)c2O)COC(=O)[C@@H](NC(=O)c2cccc(O)c2O)COC1=O)c1cccc(O)c1O [apo-ENT, enterobactin/enterochelin]
- Kd ([1]; apo ligand (no iron)): 3.6 nM

Molecule: O=C(O)c1ccc(O)c(O)c1 [3,4-DHBA]
- binding to Scn ([2]; ref Correnti et al., 2012): do not bind

Molecule: NC[C@H](O)c1ccc(O)c(O)c1 [NE, norepinephrine]
- ligand electron density in difference Fourier syntheses ([3]; co-crystallized with 2:1:1 2,3-DHBA:NE:iron complexes): did not show difference features distinct from the previously-determined Scn:2,3-DHBA:iron complex structure
- ligand electron density in difference Fourier syntheses ([3]; crystals grown with stoichiometric 3:1 NE:iron mixtures): did not show electron density features assignable to iron or ligand atoms

Molecule: CN1[C@@H]([C@H]2CSC(c3ccccc3O)=N2)SC[C@H]1C(=O)O [PCH, pyochelin]
- ligand binding in calyx (re-refined crystal structure) ([3]; re-refinement of 3U03.pdb diffraction data, under these crystallization conditions): does not bind
- binding to Scn, qualitative binding assays [2]: does not appreciably bind

Molecule: O=C(N[C@H]1COC(=O)[C@@H](NC(=O)c2cccc(O)c2O)COC(=O)[C@@H](NC(=O)c2cccc(O)c2O)COC1=O)c1cccc(O)c1O.[Fe] [Fe-ENT]
- Kd ([4]; FQ, huScn (K125A)): 15 ± 3 nM
- affinity reduction versus wild-type Scn ([4]; K125A mutation): < 40 fold
- Kd ([5]; FQ, huScn (K134A)): 10 ± 2 nM
- affinity reduction versus wild-type Scn ([5]; K134A mutation): < 40 fold
- qualitative binding by co-crystallization [6]: binding qualitatively confirmed
- qualitative binding by co-crystallization [7]: binding also qualitatively confirmed
- ligand binding (crystal structure and co-crystallization trials) [8]: lack of ligand binding; also recorded: fully ablating ligand binding
- Kd ([1]; wild-type Scn, Abergel et al., 2008, Goetz et al., 2002): 0.4 nM
- Kd [9]: 71 nM
- Kd [10]: 20 nM
- KD by ITC [11]: micromolar

Molecule: pyoverdine [PVD]
- binding to Scn, qualitative binding assays [2]: does not appreciably bind

B1: Scn: glycoprotein Siderocalin, innate immune system protein with bacteriostatic activity (protein, UniProt P80188 21-198, looked up)
Neutrophil …: QDSTSDLIPAPPLSKVPLQQNFQDNQFQGKWYVVGLAGNAILREDKDPQKMYATIYELKEDKSYNVTSVLFRKKKCDYWIRTFVPGCQPGEFTLGNIKSYPGLTSYLVRVVSTNYNQHAMVFFKKVSQNREYFKITLYGRTKELTSELKENFIRFSKSLGLPENHIVFPVPIDQCIDG
- growth arrest of P. aeruginosa [12]: does not arrest the growth

Reference: PMC7337064, “Parsing the functional specificity of Siderocalin/Lipocalin 2/NGAL for siderophores and related small-molecule ligands” (Journal of Structural Biology: X, 2019)
